Data published in paper PMC4864809, “C‐type natriuretic peptide in combination with sildenafil attenuates proliferation of rhabdomyosarcoma cells” (Cancer Medicine, 2016).

Legend:
[1] = test system: RD‐GC‐B and RMS‐YM‐GC‐B cells; experiment: Morphological appearance of cell death during proliferation assay; type: cell-based; details: during 96 h; CNP 1 μmol/L and/or sildenafil 100 μmol/L
Method: (§1) A total of 2000 cells per well were seeded into 96‐well plates in 100 μL of culture medium. After 24 h, the wells were washed twice with 1% serum‐free RPMI‐1640 medium and subsequently incubated in this medium. Twenty‐four hours after serum deprivation, CNP (1 μmol/L) and/or sildenafil (100 μmol/L) were added, and the cells were incubated for 0–4 days. Cell proliferation was determined in sextuplicate using the Cell Counting Kit‐8 (Nacalai Tesque, Kyoto, Japan).

[2] = test system: RD‐GC‐B cells; experiment: Caspase‐3 activity (Nuc‐View 488 Caspase‐3 assay kit); type: cell-based, human; details: same conditions as proliferation assay, Nuc‐View 488 substrate, data not shown
[3] = test system: Raf/MEK/ERK signaling in RD‐GC‐B cells; experiment: Western blot of Raf/MEK/ERK phosphorylation, RD‐GC‐B; type: cell-based, human; details: for ERK phosphorylation: CNP 1 μmol/L and/or sildenafil 100 μmol/L, 1–8 h
Method: (§2) A total of 1 × 10^5 cells per well were plated in 12‐well plastic plates in complete media. Cells were serum‐starved with RPMI‐1640 medium containing 1% serum for 24 h, and then treated with CNP (1 μmol/L) and/or sildenafil (100 μmol/L) for indicated times. Cells were lysed with NP‐40 buffer (0.5% NP‐40, 10 mmol/L Tris [pH 7.6], 0.15 mol/L NaCl, 1.5 mmol/L […]) containing phosphatase inhibitor cocktail (Nacalai Tesque). Samples were electrophoresed on 4–15% gradient gels (Bio‐Rad, Hercules, CA, USA) and transferred onto polyvinylidene difluoride transfer membranes (Millipore Bedford, MA). Antibody binding was detected with an enhanced chemiluminescence detection system (Amersham Pharmacia Biotech, Piscataway, NJ).

[4] = test system: Raf/MEK/ERK signaling in RMS‐YM‐GC‐B cells; experiment: Western blot of Raf/MEK/ERK phosphorylation, RMS‐YM‐GC‐B; type: cell-based, human; details: for ERK phosphorylation: CNP 1 μmol/L and/or sildenafil 100 μmol/L, 1–8 h
Method: as §2

[5] = test system: Notch, Wnt, Hedgehog, and PI3K/AKT/mTOR signaling pathways in RD‐GC‐B cells; experiment: Western blot of HES‐1, β‐catenin, GLI1 and phosphorylated Akt, RD‐GC‐B; type: cell-based, human; details: CNP 1 µM, sildenafil 100 µM, 4 hours
Method: as §2

[6] = test system: RD‐GC‐B xenograft tumors; experiment: Xenograft efficacy study; type: in vivo; details: for tumor growth (tumor volume): CNP 2.5 μg/kg/min continuous s.c. infusion, versus vehicle; for tumor growth (tumor volume) / Ki67 labeling index: n = 7–8; for Ki67 labeling index: RD‐GC‐B tumors, immunohistochemistry, relative to the control group; for Phosphorylated ERK levels in xenograft tumors: pERK1/2 versus total ERK1/2, western blot densitometry, after 4 weeks of treatment
Method: All animal experiments were performed according to a protocol approved by the Animal Care Ethics Committee of the National Cerebral and Cardiovascular Center Research Institute. Five‐week‐old male BALB/c nu/nu mice and 5‐week‐old male nonobese diabetic/severe combined immunodeficiency (NOD)⁄severe combined immunodeficiency (SCID) mice were purchased from Japan SLC (Shizuoka, Japan) and Oriental Yeast (Tokyo, Japan), respectively.
RD‐GC‐B cells (1–3 × 10^7 cells) were subcutaneously implanted into the chest and abdominal area of NOD/SCID mice. When the subcutaneous tumors reached a diameter of 10–12 mm, they were resected, divided into 5‐mm pieces, and reimplanted into the chest area of BALB/c nu/nu mice. Ten days after tumor implantation, administration of CNP and/or sildenafil was initiated. CNP was continuously infused using an osmotic mini‐pump (Alzet Model 1003D; Duret Corporation, Cupertino, CA), as previously reported 14. CNP was subcutaneously administered at a rate of 2.5 μg/kg/min, and treatment continued for 4 weeks. Sildenafil was intraperitoneally administered at a dose of 20 mg/kg every other day for 4 weeks. Tumor volume was calculated by the formula: V (mm^3) = 0.5 × a × b ^2, where a is the longest tumor axis and b is the shortest tumor axis.
Immunohitochemical staining was performed by the avidin‐biotin‐peroxidase complex (ABC) method using the Vectastain Elite ABC kit (Vector, Burlingame, CA) as described previously 14. Because the anti‐Ki67 antibody was mouse monoclonal antibody, a mouse on mouse immunodetection kit (Vector) was used. Images of immunohistochemical staining were captured using a FSX100 Bio Imaging Navigator microscope (Olympus, Tokyo, Japan). Ki67‐positive and ‐negative cells were counted using the CellSens Dimension software (Olympus). Ten randomly selected fields per section and 7–8 sections per animal were analyzed at 20 × magnification.

[7] = target: T1, GC‐B receptors in RD cells (Homo sapiens, UniProt P20594); experiment: Measurement of intracellular cGMP (RIA) in RD cells; type: cell-based; details: 15 min
T1 construct: host or cells: RD cells
T1 sequence (P20594 23-1047): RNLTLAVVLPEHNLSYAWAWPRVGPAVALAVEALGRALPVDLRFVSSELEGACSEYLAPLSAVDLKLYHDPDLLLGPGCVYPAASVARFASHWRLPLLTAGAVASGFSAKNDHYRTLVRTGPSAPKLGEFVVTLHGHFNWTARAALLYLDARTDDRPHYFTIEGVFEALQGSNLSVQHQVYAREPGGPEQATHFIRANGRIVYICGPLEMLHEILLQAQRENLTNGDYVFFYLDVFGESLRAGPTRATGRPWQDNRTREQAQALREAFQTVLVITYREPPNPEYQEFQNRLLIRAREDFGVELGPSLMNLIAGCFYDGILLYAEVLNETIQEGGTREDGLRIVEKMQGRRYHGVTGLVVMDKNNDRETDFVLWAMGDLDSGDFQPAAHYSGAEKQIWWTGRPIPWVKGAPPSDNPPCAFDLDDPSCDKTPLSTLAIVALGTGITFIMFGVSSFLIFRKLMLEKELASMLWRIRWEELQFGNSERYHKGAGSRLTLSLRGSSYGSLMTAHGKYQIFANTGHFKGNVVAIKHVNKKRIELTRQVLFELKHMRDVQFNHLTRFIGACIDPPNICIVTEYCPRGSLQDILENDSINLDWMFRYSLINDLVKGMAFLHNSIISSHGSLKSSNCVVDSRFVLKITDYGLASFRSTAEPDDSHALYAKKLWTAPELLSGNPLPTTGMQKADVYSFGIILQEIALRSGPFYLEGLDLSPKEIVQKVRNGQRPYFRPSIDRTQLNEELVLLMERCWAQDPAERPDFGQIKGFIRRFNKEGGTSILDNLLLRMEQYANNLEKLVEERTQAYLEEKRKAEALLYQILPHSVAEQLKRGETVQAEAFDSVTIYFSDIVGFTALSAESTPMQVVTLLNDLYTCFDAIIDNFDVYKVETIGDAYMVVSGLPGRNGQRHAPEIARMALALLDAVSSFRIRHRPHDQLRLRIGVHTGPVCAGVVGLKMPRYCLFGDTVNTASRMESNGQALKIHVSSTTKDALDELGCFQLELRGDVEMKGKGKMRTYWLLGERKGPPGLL
Method: (§3) Rhabdomyosarcoma cells were seeded onto 24‐well plastic plates and incubated for 24 h. After the cells were confluent as a monolayer, they were washed twice with 500 μL of serum‐free RPMI‐1640 and incubated in serum‐free medium for 24 h. CNP was dissolved in 5 mmol/L isobutylmethylxanthine (IBMX) at final concentrations of 1 nmol/L–10 μmol/L. Various concentrations of CNP were added to the medium, and the monolayer was incubated at 37°C for an additional 15 min. The medium was rapidly removed by aspiration, and 400 μL of 70% ethanol containing 100 μmol/L hydrochloric acid (HCl) was added to lyse the cells. The cGMP content of the dried extract was quantitated using a radioimmunoassay (RIA) kit (Yamasa Shoyu, Tokyo, Japan).

[8] = target: T2, GC‐B receptors in RMS‐YM cells (Homo sapiens, UniProt P20594); experiment: Measurement of intracellular cGMP (RIA) in RMS‐YM cells; type: cell-based; details: 15 min
T2 construct: host or cells: RMS‐YM cells
T2 sequence (P20594 23-1047): T1 sequence (P20594 23-1047)
Method: as §3

[9] = target: T3, GC‐B in RD‐GC‐B cells (Homo sapiens, UniProt P20594); experiment: Measurement of intracellular cGMP (RIA) in RD‐GC‐B cells; type: cell-based; details: RD‐GC‐B cells stably expressing GC‐B
T3 construct: host or cells: RD and RMS‐YM cells, retrovirally infected and puromycin-selected (RD‐GC‐B, RMS‐YM‐GC‐B)
T3 sequence (P20594 23-1047): T1 sequence (P20594 23-1047)
Description: (§4) The plasmid used for preparing retrovirus vector expressing GC‐B‐FLAG (pCX4 puro GC‐B‐FLAG) was constructed by introducing the GC‐B‐FLAG fragment, amplified by polymerase chain reaction (PCR) from human GC‐B obtained from Promega (Madison, WI), into the NotI site of pCX4 puro. The vector was transfected into BOSC cells with pE‐eco and pGp (TAKARA BIO, Kyoto, Japan) using FuGENE6 (Promega) to produce ecotropic retrovirus. After transfection, culture supernatants were collected, and filtered. Retroviral infection of RD and RMS‐YM cells was performed using the retrovirus and Ecotropic Receptor Booster (TAKARA BIO). After infection, cells were selected with puromycin. These resultant cell lines are referred to as RD‐GC‐B or RMS‐YM‐GC‐B.
as §3, with “The medium was rapidly removed by aspiration, and 400 μL of 70% ethanol containing 100 μmol/L hydrochloric acid (HCl) was added to lyse the cells.” left out

[10] = target: T4, GC‐B in RMS‐YM‐GC‐B cells (Homo sapiens, UniProt P20594); experiment: Measurement of intracellular cGMP (RIA) in RMS‐YM‐GC‐B cells; type: cell-based; details: RMS‐YM‐GC‐B cells stably expressing GC‐B
T4 construct: host or cells: RD and RMS‐YM cells, retrovirally infected and puromycin-selected (RD‐GC‐B, RMS‐YM‐GC‐B)
T4 sequence (P20594 23-1047): T1 sequence (P20594 23-1047)
Description: as §4
as §3, with “The medium was rapidly removed by aspiration, and 400 μL of 70% ethanol containing 100 μmol/L hydrochloric acid (HCl) was added to lyse the cells.” left out

[11] = test system: RD‐GC‐B cells; experiment: Cell proliferation assay (Cell Counting Kit‐8 / WST‐8), RD‐GC‐B; type: cell-based, human; details: CNP 1 μmol/L, 96 h, 1% serum, versus solvent control, n = 6, three independent experiments
Method: as §1

[12] = test system: RMS‐YM‐GC‐B cells; experiment: Cell proliferation assay (Cell Counting Kit‐8 / WST‐8), RMS‐YM‐GC‐B; type: cell-based, human; details: CNP 1 μmol/L, 96 h, 1% serum, versus solvent control, n = 6, three independent experiments
Method: as §1

[13] = test system: parental RD cells; experiment: Cell proliferation assay, parental RD; type: cell-based, human; details: data not shown
Method: as §1

[14] = test system: parental RMS‐YM cells; experiment: Cell proliferation assay, parental RMS‐YM; type: cell-based, human; details: data not shown
Method: as §1

[15] = test system: ERK phosphorylation in parental RD cells; experiment: Western blot of ERK phosphorylation, parental RD; type: cell-based, human; details: data not shown
Method: as §2

[16] = test system: ERK phosphorylation in parental RMS‐YM cells; experiment: Western blot of ERK phosphorylation, parental RMS‐YM; type: cell-based, human; details: data not shown
Method: as §2

[17] = Plasma CNP measurements (CNP RIA kit); type: in vivo, C57BL/6 mice; details: continuous s.c. infusion 2.5 μg/kg/min by osmotic mini‐pump, blood 3 days after implantation, n = 5 versus untreated n = 10
Method: Osmotic mini‐pumps containing CNP were implanted subcutaneously in 6‐week‐old male C57BL/6 mice purchased from Japan SLC. CNP was administered at a rate of 2.5 μg/kg/min, and blood samples from these treated mice and untreated mice were withdrawn 3 days after the implantation. CNP content was determined using a CNP RIA kit (Phoenix Pharmaceuticals, Belmont, CA).

[18] = subcutaneous infusion of CNP at 2.5 μg/kg/min; cited from earlier work
Description: There are some limitations in this study. First, RMS cells stably expressing GC‐B expressed higher levels of GC‐B than clinical samples. However, given that the recurrent sample expressed a very high level of GC‐B, the findings made using RMS cells stably expressing GC‐B are still quite valuable.

[19] = sildenafil 20 mg/kg i.p. every other day, 4 weeks
[20] = CNP 1 nmol/L–10 μmol/L with IBMX, 37°C, serum-free, RIA, average of four wells
[21] = CNP 1 μmol/L, sildenafil 100 μmol/L

CCCc1nn(C)c2c(=O)[nH]c(-c3cc(S(=O)(=O)N4CCN(C)CC4)ccc3OCC)nc12 [sildenafil]
morphological appearance of cell death [1]: not observed | caspase‐3 activity (apoptosis) [2]: not significantly induced | ERK phosphorylation [3]: did not cause dephosphorylate ERK | ERK phosphorylation [4]: did not cause dephosphorylate ERK | Expression of HES‐1, β‐catenin, and GLI1, and phosphorylation of Akt [5]: not changed | tumor growth (tumor volume) [6, 19]: did not suppress tumor growth significantly | Ki67 labeling index [6]: significantly reduced | Phosphorylated ERK levels in xenograft tumors [6]: ~30 % of control levels

C‐type natriuretic peptide [CNP]
CNP concentration at which cGMP levels almost reached a plateau ([7]; with IBMX): ~1 µmol/L | intracellular cGMP levels [7, 20]: increased the intracellular cGMP levels in a dose‐dependent manner | CNP concentration at which cGMP levels almost reached a plateau ([8]; with IBMX): ~1 µmol/L | intracellular cGMP levels [8, 20]: increased the intracellular cGMP levels in a dose‐dependent manner | CNP‐dependent cGMP production [9]: robust increases | CNP‐dependent cGMP production [10]: robust increases | cell proliferation [11]: significantly attenuated | cell proliferation [12]: significantly attenuated | effect on proliferation [13]: no effect | effect on proliferation [14]: no effect | morphological appearance of cell death [1]: not observed | caspase‐3 activity (apoptosis) [2]: not significantly induced | ERK phosphorylation [3]: dephosphorylation of ERK | phosphorylation of Raf‐1 and MEK [3, 21]: Dephosphorylation | ERK phosphorylation [4]: dephosphorylation of ERK | phosphorylation of Raf‐1 and MEK [4, 21]: Dephosphorylation | Expression of HES‐1, β‐catenin, and GLI1, and phosphorylation of Akt [5]: not changed | reduction in ERK phosphorylation [15]: no effect | reduction in ERK phosphorylation [16]: no effect | body weight of mice during treatment (tolerability) ([6]; 4 weeks, CNP 2.5 μg/kg/min s.c., sildenafil 20 mg/kg i.p. every other day, relative to control group): did not induce weight loss | tumor growth (tumor volume) [6, 19]: did not suppress tumor growth significantly | Ki67 labeling index [6]: significantly reduced | Phosphorylated ERK levels in xenograft tumors [6]: ~30 % of control levels | plasma concentration of CNP [17]: significantly increased | hypotension [18]: does not cause hypotension
